# Source: article PMC6792352, “Limited Chemical Structural Diversity Found to Modulate Thyroid Hormone Receptor in the Tox21 Chemical Library” (Environmental Health Perspectives, 2019)
# Where a name gives a salt, the structure may show the parent alone. Read-outs that look alike come from different tables or passages of the source.
# What was measured:
# in vitro = conditions: rat, gh3-tre-luc cells, AC50 (uM) modified / 1000
# GH3-TRE-Luc cell line = conditions: read-out: AC50 (uM) modified / 1000, viability, 1 nM T3 present, 24 h
smiles,measurement,setting,value
CCCCCCCOC(=O)c1ccc(O)cc1 [Heptylparaben],CC50 at 24 h,in vitro,47.8 µM
same,CC50,GH3-TRE-Luc cell line; Tox21_110001=Tox21_303458,50.7 µM
CCc1cc(Cl)c(OC)c(C(=O)NC[C@@H]2CCCN2CC)c1O [Eticlopride hydrochloride],CC50 at 24 h,in vitro,19.6 µM
same,CC50,GH3-TRE-Luc cell line; Tox21_110001=Tox21_111229,25.3 µM
same,CC50,GH3-TRE-Luc cell line; Tox21_110001=Tox21_113585,33.6 µM
"CCC(C)(C)c1ccc(O)c(C(C)(C)CC)c1 [2,4-Di-tert-pentylphenol]",CC50 at 24 h,in vitro,10.5 µM
same,CC50,GH3-TRE-Luc cell line; Tox21_110001=Tox21_300090,12.2 µM
OCCN1CCN(CCCN2c3ccccc3C=Cc3ccccc32)CC1 [Opipramol dihydrochloride],CC50 at 24 h,in vitro,6.78 µM
same,CC50,GH3-TRE-Luc cell line; Tox21_110001=Tox21_113153,8.37 µM
CC(=O)Oc1ccccc1C(=O)Nc1ncc([N+](=O)[O-])s1 [Nitazoxanide],CC50 at 24 h,in vitro,23.7 µM
same,CC50,GH3-TRE-Luc cell line; Tox21_110001=Tox21_111018,27.7 µM
CCCCCCCCCCCCOC(=O)c1cc(O)c(O)c(O)c1 [Lauryl gallate],CC50 at 24 h,in vitro,2.89 µM
same,CC50,GH3-TRE-Luc cell line; Tox21_110001=Tox21_303487,3.66 µM
CCCN(CCC)c1c([N+](=O)[O-])cc(C(F)(F)F)cc1[N+](=O)[O-] [Trifluralin],CC50 at 24 h,in vitro,> 90 µM
same,CC50,GH3-TRE-Luc cell line; Tox21_110001=Tox21_300918,62.5 µM
Nc1c(/N=N/c2ccc(-c3ccc(/N=N/c4cc(S(=O)(=O)O)c5ccccc5c4N)cc3)cc2)cc(S(=O)(=O)O)c2ccccc12 [C.I. Direct Red 28],CC50 at 24 h,in vitro,27 µM
same,CC50,GH3-TRE-Luc cell line; Tox21_110001=Tox21_111605,16.3 µM
CC(=O)[C@]1(O)Cc2c(O)c3c(c(O)c2[C@@H](O[C@H]2C[C@H](N)[C@H](O)[C@H](C)O2)C1)C(=O)c1c(O)cccc1C3=O [Carminomycin],CC50 at 24 h,in vitro,0.177 µM
same,CC50,GH3-TRE-Luc cell line; Tox21_110001=Tox21_111978,0.212 µM
"CCN(CCN)c1cccc(C)c1 [N-Ethyl-N-(3-methylphenyl)ethane-1,2-diamine]",CC50 at 24 h,in vitro,61.5 µM
same,CC50,GH3-TRE-Luc cell line; Tox21_110001=Tox21_303371,69.9 µM
CCCCCCc1ccc(O)cc1O [4-Hexylresorcinol],CC50 at 24 h,in vitro,61 µM
same,CC50,GH3-TRE-Luc cell line; Tox21_110001=Tox21_300357,56.7 µM
CCCCCCCCCCCCc1ccccc1O [Dodecylphenol],CC50 at 24 h,in vitro,11.8 µM
same,CC50,GH3-TRE-Luc cell line; Tox21_110001=Tox21_303360,15.3 µM
O=c1[nH]c2ccccc2n1C1CCN(CCCC(c2ccc(F)cc2)c2ccc(F)cc2)CC1 [Pimozide],CC50 at 24 h,in vitro,8.93 µM
same,CC50,GH3-TRE-Luc cell line; Tox21_110001=Tox21_110224,7.02 µM
"O=C(Nc1ccccc1SSc1ccccc1NC(=O)c1ccccc1)c1ccccc1 [2,2'-Dibenzoylaminodiphenyl disulfide]",CC50 at 24 h,in vitro,89.8 µM
same,CC50,GH3-TRE-Luc cell line; Tox21_110001=Tox21_303466,72.6 µM
CCN(CC)C(=O)c1cc(S(=O)(=O)Cc2ccccc2)c(N2CCC(c3ccccc3)CC2)cc1N(CC)CCN(C)C [HMR1171 trifluoroacetate (1:1)],CC50 at 24 h,in vitro,4.78 µM
same,CC50,GH3-TRE-Luc cell line; Tox21_110001=Tox21_113204,3.38 µM
"CCc1cc(C(C)(C)C)c(O)c(C(C)(C)C)c1 [2,6-Di-tert-butyl-4-ethylphenol]",CC50 at 24 h,in vitro,72.5 µM
same,CC50,GH3-TRE-Luc cell line; Tox21_110001=Tox21_303397,85.5 µM
Cc1c(C(=O)O)c(O)cc2c1C(=O)c1c(O)c([C@@H]3O[C@H](CO)[C@@H](O)[C@H](O)[C@H]3O)c(O)c(O)c1C2=O [Carminic acid],CC50 at 24 h,in vitro,55.9 µM
same,CC50,GH3-TRE-Luc cell line; Tox21_110001=Tox21_300294,56.2 µM
"Nc1ccc(O)c(N)c1 [2,4-Diaminophenol dihydrochloride]",CC50 at 24 h,in vitro,41.5 µM
same,CC50,GH3-TRE-Luc cell line; Tox21_110001=Tox21_303017,45.5 µM
Cc1ccc(C(C)(C)C)c(O)c1 [2-tert-Butyl-5-methylphenol],CC50 at 24 h,in vitro,81 µM
same,CC50,GH3-TRE-Luc cell line; Tox21_110001=Tox21_300486,47.9 µM
CCOc1cc(Oc2ccc(C(F)(F)F)cc2Cl)ccc1[N+](=O)[O-] [Oxyfluorfen],CC50 at 24 h,in vitro,79.3 µM
same,CC50,GH3-TRE-Luc cell line; Tox21_110001=Tox21_300827,50 µM
"Nc1ccc(N)cc1 [1,4-Benzenediamine]",CC50 at 24 h,in vitro,68.8 µM
same,CC50,GH3-TRE-Luc cell line; Tox21_110001=Tox21_302943,68.9 µM
Oc1ccc(/C=C/c2cc(O)cc(O)c2)cc1 [Resveratrol],CC50 at 24 h,in vitro,35 µM
same,CC50,GH3-TRE-Luc cell line; Tox21_110001=Tox21_303376,36.1 µM
C[C@H](CCC(=O)O)[C@H]1CC[C@H]2[C@@H]3CC[C@@H]4C[C@H](O)CC[C@]4(C)[C@H]3CC[C@]12C [Lithocholic acid],CC50 at 24 h,in vitro,24.5 µM
same,CC50,GH3-TRE-Luc cell line; Tox21_110001=Tox21_302791,47.9 µM
CCCCC(CC)COC(=O)c1ccc(O)cc1 (stereo not shown) [2-Ethylhexylparaben],CC50 at 24 h,in vitro,32.1 µM
same,CC50,GH3-TRE-Luc cell line; Tox21_110001=Tox21_302793,41.7 µM
CCC(CC)Nc1c([N+](=O)[O-])cc(C)c(C)c1[N+](=O)[O-] [Pendimethalin],CC50 at 24 h,in vitro,76.7 µM
same,CC50,GH3-TRE-Luc cell line; Tox21_110001=Tox21_300867,> 90 µM
"Oc1c(Cl)cc(Cl)c(Cl)c1Cl [2,3,4,6-Tetrachlorophenol]",CC50 at 24 h,in vitro,71.8 µM
same,CC50,GH3-TRE-Luc cell line; Tox21_110001=Tox21_302932,64.3 µM
"O=P(OC(CCl)CCl)(OC(CCl)CCl)OC(CCl)CCl [Tris(1,3-dichloro-2-propyl) phosphate]",CC50 at 24 h,in vitro,61.2 µM
same,CC50,GH3-TRE-Luc cell line; Tox21_110001=Tox21_300194,36.6 µM
COC1=CC(=O)C[C@@H](C)[C@]12Oc1c(Cl)c(OC)cc(OC)c1C2=O [Griseofulvin],CC50 at 24 h,in vitro,> 90 µM
same,CC50,GH3-TRE-Luc cell line; Tox21_110001=Tox21_303005,49.1 µM
"Cc1cc(Cc2cc(C)cc(C(C)(C)C)c2O)c(O)c(C(C)(C)C)c1 [2,2'-Methylenebis(4-methyl-6-tert-butylphenol)]",CC50 at 24 h,in vitro,11.5 µM
same,CC50,GH3-TRE-Luc cell line; Tox21_110001=Tox21_302923,10.1 µM
"Oc1ccc(C(c2ccc(O)cc2)C(Cl)(Cl)Cl)cc1 [2,2-Bis(4-hydroxyphenyl)-1,1,1-trichloroethane]",CC50 at 24 h,in vitro,74.8 µM
same,CC50,GH3-TRE-Luc cell line; Tox21_110001=Tox21_300656,55.1 µM
"CC(C)(c1cc(Br)c(O)c(Br)c1)c1cc(Br)c(O)c(Br)c1 [3,3',5,5'-Tetrabromobisphenol A]",CC50 at 24 h,in vitro,39.3 µM
same,CC50,GH3-TRE-Luc cell line; Tox21_110001=Tox21_201981,43.3 µM
same,CC50,GH3-TRE-Luc cell line; Tox21_110001=Tox21_300561,38.6 µM
Clc1ccccc1C(c1ccccc1)(c1ccccc1)n1ccnc1 [Clotrimazole],CC50 at 24 h,in vitro,5.21 µM
same,CC50,GH3-TRE-Luc cell line; Tox21_110001=Tox21_110111,8.57 µM
CC(C)(C)C(=O)C1C(=O)c2ccccc2C1=O [Pindone],CC50 at 24 h,in vitro,60.9 µM
same,CC50,GH3-TRE-Luc cell line; Tox21_110001=Tox21_303317,71.8 µM
O=[N+]([O-])c1ccc(Nc2ccccc2)cc1 [4-Nitro-N-phenylaniline],CC50 at 24 h,in vitro,45.4 µM
same,CC50,GH3-TRE-Luc cell line; Tox21_110001=Tox21_303333,76.1 µM
CO/N=C1\C[C@]2(C[C@@H]3C[C@@H](C/C=C(\C)C[C@@H](C)/C=C/C=C4\CO[C@@H]5[C@H](O)C(C)=C[C@@H](C(=O)O3)[C@]45O)O2)O[C@H](/C(C)=C/C(C)C)[C@H]1C [Moxidectin],CC50 at 24 h,in vitro,5.14 µM
same,CC50,GH3-TRE-Luc cell line; Tox21_110001=Tox21_113093,4.45 µM
CC(COc1ccccc1)N(CCCl)Cc1ccccc1 (stereo not shown) [Phenoxybenzamine hydrochloride],CC50 at 24 h,in vitro,45 µM
same,CC50,GH3-TRE-Luc cell line; Tox21_110001=Tox21_302978,68.5 µM
"Cc1ccc(N)c(N)c1 [3,4-Diaminotoluene]",CC50 at 24 h,in vitro,32.1 µM
same,CC50,GH3-TRE-Luc cell line; Tox21_110001=Tox21_300507,18.4 µM
